US20260077043A1, “COMBINATION THERAPY” (LEAP THERAPEUTICS, INC., priority 2022, published 2026)

What was measured:
[1] = tested on: HCT116 human colorectal carcinoma cells with H1047R mutation; assay: HCT116 H1047/− subcutaneous xenograft, tumor growth inhibition; type: in vivo, BALB/c scid mice; conditions: Day 48 (Treatment Day 36), compared to the IgG4 control; DKN-01 5 mg/kg IP twice weekly, BYL719 25 mg/kg PO QD
From the text: (§1) A study was initiated to evaluate growth of a human colorectal cancer cell line, HCT116, with and without the PI3KCA H1047R mutation in mice treated with DKN-01, the PI3KCA inhibitor BYL719 (Alpelisib), or the combination. Female BALB/c scid mice were inoculated subcutaneously with HCT116 human colon carcinoma cells with or without the H1047R mutation on Day 0. On Day 17, when tumors volumes had reached 50-75 mm3, animals were randomized into treatment groups and dosing was initiated.
(§2) Female BALB/c scid mice (10 per group) were inoculated subcutaneously in the right flank with 10×10^6 HCT116 human colorectal carcinoma cells on Day 0. Human IgG4 control (10 mg/kg) and DKN-01 (5 mg/kg) were administered intraperitoneally (IP) twice weekly. BYL719 (25 mg/kg) was administered orally (PO) every day (QD) for the duration of the study. Tumor measurements were performed every 3-4 days with calipers and volume (V) was calculated using the following formula: V=½(length [mm]×width [mm]^2). Data are shown as mean tumor volumes (MTV)+SEM. #, p<0.05. Percent TGI =[(MTV Control)−(MTV Treated)]/(MTV Control). Comparisons between groups at study termination were performed using a one-way repeated measures ANOVA with Tukey's multiple comparisons test.

[2] = tested on: HCT116 human colorectal carcinoma cells without the PIK3CA H1047R mutation; assay: HCT116 PIK3CA+/− subcutaneous xenograft, tumor growth inhibition; type: in vivo, BALB/c scid mice; conditions: Day 52 (Treatment Day 36), compared to the IgG4 control; DKN-01 5 mg/kg IP twice weekly, BYL719 25 mg/kg PO QD
From the text: as §1, §2

Cc1nc(NC(=O)N2CCC[C@H]2C(N)=O)sc1-c1ccnc(C(C)(C)C(F)(F)F)c1 [BYL719, Alpelisib]
Tumor Growth Inhibition (TGI) [1]: 56% | Tumor Growth Inhibition (TGI) [2]: 50%
